The nature of this series: Skin CDDP concentration after iontophoresis of a vasoactive agent with intravenous cisplatin infusion. The class given is in vivo, female weanling Yorkshire pigs. The text has this: The ability of iontophoretically-delivered, vasoactive compounds to affect local cutaneous concentrations of a systemically delivered active agent was investigated in female weanling Yorkshire pigs. The effect of the timing of iontophoresis on tissue deposition of active agent was also investigated.
Study animals were assigned to receive iontophoresis either prior to, or after, attaining steady-state systemic concentrations of cisplatin (cisdiaminedichloroplatinum, CDDP). The iontophoresed agent was either a peripheral vasodilator (tolazoline), peripheral vasoconstrictor (norepinephrine), or saline.
Subjects were sedated with intramuscular ketamine/xylazine, and anesthesia was maintained with intravenous thiamylal. In each subject the inguinal area was divided into four quadrants, three of which received iontophoresis. One quadrant received iontophoresis of 0.4% tolazoline HCl (TOL); one received iontophoresis of 0.4% norepinephrine HCl (NOR); and one received iontophoresis of 50% saturated saline (SAL). The remaining quadrant served as a control (CON) and was not subjected to iontophoresis.
Iontophoretic current density was 0.2 mAmp/cm^2. Cisplatin (1.0 mg/ml) was infused via the saphenous vein at a rate of 0.03 mg/kg/min. […]

Each structure is given as a SMILES string.

As for `NC[C@H](O)c1ccc(O)c(O)c1` [Norepinephrine, norepinephrine], the “skin CDDP concentrations among skin samples (in words)” value (iontophoresis after reaching steady-state CDDP, control, tolazoline, norepinephrine and saline electrodes) was “did not vary significantly”. For the same molecule, the “skin CDDP concentration vs control skin (in words)” value (iontophoresis prior to steady-state CDDP, tolazoline p=0.01, norepinephrine p<0.001) is reported as “significantly lower”.

Values taken from US5620416A, “Methods of using topical agents with systemically administered active agents” (priority 1995, dated 1997).
